According to publication PMC6316200, “Ceratinadins E and F, New Bromotyrosine Alkaloids from an Okinawan Marine Sponge Pseudoceratina sp” (Marine Drugs, 2018):
Converted amounts (≈) assume the structure as drawn. Read-outs that look alike come from different tables or passages of the source.

Legend:
[1] = tested on: Plasmodium falciparum FCR3 strain; assay: Antimalarial activity in vitro against drug-sensitive P. falciparum FCR3 strain; assay type: cell-based; settings: for IC50: Plasmodium falciparum; for Selectivity Index MRC-5/FCR3: ratio of IC50 MRC-5 to IC50 FCR3
Excerpt: (§1) The antimalarial activities of psammaplysin F (3), ceratinadin E (1), and ceratinadin F (2) against a drug-resistant and a drug-sensitive strains of Plasmodium falciparum (K1 and FCR3 strains, respectively) were examined, see Table 2 [16].

[2] = tested on: MRC-5 (normal human embryonic lung fibroblast); assay: Cytotoxicity against MRC-5 cells; assay type: cell-based
[3] = tested on: Plasmodium falciparum K1 strain; assay: Antimalarial activity in vitro against drug-resistant P. falciparum K1 strain; assay type: cell-based; settings: for IC50: Plasmodium falciparum; for Selectivity Index MRC-5/K1: ratio of IC50 MRC-5 to IC50 K1
Excerpt: as §1

[4] = Cytotoxicity against MRC-5 cells; assay type: cell-based, human
[5] = human, MRC-5 cells (normal human embryonic lung fibroblasts)
[6] = drug-resistant P. falciparum strain K1, in vitro, read-out: Antimalarial Activity K1, IC50
[7] = drug-sensitive P. falciparum strain FCR3, in vitro, read-out: Antimalarial Activity FCR3, IC50

Compound | IC50 [4, 5] [µg/mL] | IC50 [3, 6] [µg/mL] | Selectivity Index MRC-5/K1 [3] | IC50 [1, 7] [µg/mL] | Selectivity Index MRC-5/FCR3 [1] | other results
psammaplysin F [Psammaplysin F (3)] | – | – | – | – | – | Antimalarial Activity FCR3, IC50 ([1]; drug-sensitive P. falciparum strain FCR3, in vitro): 2.45 µg/mL; Cytotoxicity MRC-5, IC50 [2]: 12.65 µg/mL; Antimalarial Activity K1, IC50 ([3]; drug-resistant P. falciparum strain K1, in vitro): 3.77 µg/mL
CNCCc1cc(Br)c(OCCCNC(=O)N(C)CCc2cc(Br)c(OCCCNC(=O)N(C)CCc3cc(Br)c(OCCCNC(=O)C4=NO[C@]5(CC(Br)=C(OC)C(Br)=CO5)[C@@H]4O)c(Br)c3)c(Br)c2)c(Br)c1 [Ceratinadin F (2), ceratinadin F] | > 50 | > 12.5 | >4 | – | – | antimalarial activity (in words) ([3]; P. falciparum in vitro, strain not named, only K1 examined for this compound): did not show significant antimalarial activity
C[C@@H]1CC[C@H]2[C@@H](C)C(=O)O[C@@H]3O[C@@]4(C)CC[C@@H]1[C@]32OO4 [Artemisinin, reference compound] | > 14.1 | 0.01 (≈ 0.0354 µM) | >1412 | 0.0088 (≈ 0.0312 µM) | >1604.5 | –
CCN(CC)CCCC(C)Nc1ccnc2cc(Cl)ccc12 (centres unmarked) [Chloroquine, reference compound] | – | – | – | – | – | IC50 ([1]; FCR3, read-out: Antimalarial Activity FCR3, IC50): 0.035 µg/mL (≈ 0.109 µM); IC50 ([4]; normal human embryonic lung fibroblast): > 25.8 µg/mL; IC50 ([3]; K1, read-out: Antimalarial Activity K1, IC50): 0.34 µg/mL (≈ 1.06 µM)
CNCCc1cc(Br)c(OCCCNC(=O)N(C)CCc2cc(Br)c(OCCCNC(=O)C3=NO[C@]4(CC(Br)=C(OC)C(Br)=CO4)[C@@H]3O)c(Br)c2)c(Br)c1 [Ceratinadin E (1), ceratinadin E] | 16 (≈ 14 µM) | 1.03 (≈ 0.904 µM) | 15.5 | 0.77 (≈ 0.676 µM) | 20.8 | –
